Here are results for 18 molecules from patent US20030109523A1, “Bicyclic antagonists selective for the alphavbeta3 integrin” (Wyeth, priority 1999, published 2003).

Counter-ions that a name gives are not always drawn. Like-named read-outs stand apart in the source and are kept apart here. Ends that are not written are not given here. Peptide text beside a SMILES is read from it.

One assay has as its target T1, αVβ3 integrin (Homo sapiens, UniProt P05106+P06756).
T1 construct: αVβ3-expressing cell lines are maintained by standard tissue culture techniques; endogenous in cells; host or cells: αVβ3-expressing cell lines
Briefly: Osteopontin-αVβ3 Cell Attachment Test Procedure. In kind it is cell-based. How it is done:
Osteopontin-αVβ3 Cell Attachment Test Procedure
Measuring the effect of compounds on the RGD-dependent attachment of cells to osteopontin mediated by the αVβ3 integrin.
Following incubation the wells were aspirated and washed once with D-PBS; plates can either be used immediately or stored for up to 1 week at 4° C. Prior to assay, the wells were blocked with 1% bovine serum albumin (BSA) in cell suspension media for 1 hour at 37° C. Following the blocking period, wells were aspirated and washed once with D-PBS.
αVβ3-expressing cell lines are maintained by standard tissue culture techniques. […] The cells were pelleted by low-speed centrifugation and washed three times with 0.5 mg/mL trypsin inhibitor in D-PBS (Sigma). The final cell pellet was resuspended in cell suspension media at a concentration of 10^6 cells/mL.
Incubation: 100 μL of diluted test compound was added to osteopontin-coated wells (in triplicate) followed by 100 μL of cell suspension; background cell attachment was determined in uncoated wells. The plate was incubated at 25° C. in a humidified air atmosphere for 1.5 hours. Following the incubation period, the wells were gently aspirated and washed once with D-PBS.
Cell Number Detection: The number of cells attached was determined by an MTT dye conversion assay (Promega) according to the manufacturer's instructions. Briefly, MTT dye was diluted in cell suspension media (15:85) and 100 μL was added to each well. […] The assay plates were covered and incubated at 37° C. in a humidified air atmosphere overnight.
The individual well optical density was expressed as a percentage of the maximal attachment (% Max) wells minus background attachment, and reported as the mean ±standard deviation.

A further assay has as its system osteoclasts. Briefly: Osteoclast Bone Pitting. In kind it is cell-based, rat. As for the experimental part:
Osteoclast Bone Pitting The test procedure was conducted as described by R. J. Murrills and D. W. […] At this pH the adherent osteoclasts excavate an adequate number of resorption pits for assay purposes. Slices were fixed in 2.5% glutaraldehyde and osteoclasts counted following tartrate-resistant acid phosphatase staining. […] All cells were stripped from the slice by sonication on 0.25M NH4OH and the resorption pits formed by the osteoclasts during the experiment stained with toluidine blue. Resorption pits were quantified by manually counting. The experiments were conducted according to a block design with osteoclasts from each animal exposed to each treatment. Three replicate slices were used per treatment per animal, such that a total of 96 slices were examined for an experiment involving four animals and eight treatments (including control). Several parameters were recorded on a “per slice” basis: number of pits, number of osteoclasts, number of pits per osteoclast, number of fibroblast-like bone cells. SAS or JMP statistical software were used for statistical analysis. […] IC50s were calculated using dose-response curves.

The target of assay [1] is T2, Vitronectin Receptor (αVβ3) (Homo sapiens, UniProt P05106+P06756).
T2 construct: expressed in transfected cells; host or cells: 512P5 cells (plasma membrane preparation)
Briefly: Vitronectin Receptor (αVβ3) Binding Test Procedure.

The target in another assay is T3, αIIbβ3 integrin (Homo sapiens, UniProt P05106+P08514).
T3 construct: Human Platelets: Platelet-enriched plasma was obtained commercially from a donor pool; from tissue; host or cells: human platelet-rich plasma from a commercial donor pool
Briefly: ADP-Induced Platelet Aggregation. In kind it is cell-based. As to conditions: for ability to inhibit ADP induced platelet aggregation: reference peptides, at 200 μM; for IC50: ADP 20 uM, human platelets. As for the experimental part: Measurement of the Effect of Compounds on ADP-Induced Platelet Aggregation
Measuring the effect of compounds on ADP-induced platelet aggregation mediated by a fibrinogen-αIIbβ3 integrin interaction.
Human Platelets: Platelet-enriched plasma was obtained commercially from a donor pool. The plasma was tested prior to shipment and found to be negative for HIV, HCV and Hepatitis B. Platelet-rich plasma (PRP) was obtained by diluting plasma to an approximate final concentration of 3×10(6) platelets per mL in platelet poor plasma (PPP). PPP was the supernatant of a lowspeed centrifugation of plasma.
Adenosine diphosphate (ADP): ADP was obtained commercially and diluted to 1 mM (stock solution) in distilled, deionized water (ddH2O).
Incubation: PRP and PPP were prewarmed in a water bath at 37° C. […] PRP plus sample compound in a final volume of 500 uL was added to a pre-warmed cuvette in a ChronoLog aggregometer. A control containing PRP and 5 uL of vehicle was treated similarly to the test cuvette; final vehicle concentration was 1%. The two cuvettes were incubated with stirring (1000 rpm) at 37° C. for 5 minutes. Five hundred microliters of PPP was used as a reference (100% aggregation).
Aggregation: To begin the test, ADP was added yielding a final concentration of 20 uM to both samples (plus and minus sample compound). Light transmittance was monitored continuously and compared to the reference cuvette. After five minutes, the test was terminated and the slope and maximal amplitude of the resulting aggregation plot was calculated by the aggregometer.
The percent of maximal aggregation is the ratio of the maximal aggregations of the sample cuvette to the control multiplied by 100 (% Max) and reported as the mean+−standard deviation.

[2] abbreviates: @ 100 μM, % of maximal attachment.
[3] abbreviates: read-out: (αVβ3) IC50 RECEPTOR BINDING.
[4] abbreviates: Table VII, @200 μM, percent of maximal aggregation.
Setting [5] is: reference RGD peptides, 125I-Echistatin 50 pM, read-out: IC50.
Where [6] appears, read: @ 100 μM, % of maximal attachment, read-out: (αVβ3) CELL ATTACHMENT, % @ concentration.
[7] abbreviates: @ 30 μM, % Max = percentage of the specific binding, read-out: (αVβ3) RECEPTOR BINDING, % @ concentration.
Setting [8] is: attachment of cells to osteopontin, read-out: (αVβ3) IC50 CELL ATTACHMENT
Where [9] appears, read: Table VII, read-out: Platelet Aggregation αIIbβ3 IC50.
[10] abbreviates: % Max = percentage of the specific binding, read-out: (αVβ3) RECEPTOR BINDING, % @ concentration.
Where [11] appears, read: reference compounds, Table VI, read-out: IC50 (95% Confidence Interval).

T3 sequence (P08514 32-887 limits assumed): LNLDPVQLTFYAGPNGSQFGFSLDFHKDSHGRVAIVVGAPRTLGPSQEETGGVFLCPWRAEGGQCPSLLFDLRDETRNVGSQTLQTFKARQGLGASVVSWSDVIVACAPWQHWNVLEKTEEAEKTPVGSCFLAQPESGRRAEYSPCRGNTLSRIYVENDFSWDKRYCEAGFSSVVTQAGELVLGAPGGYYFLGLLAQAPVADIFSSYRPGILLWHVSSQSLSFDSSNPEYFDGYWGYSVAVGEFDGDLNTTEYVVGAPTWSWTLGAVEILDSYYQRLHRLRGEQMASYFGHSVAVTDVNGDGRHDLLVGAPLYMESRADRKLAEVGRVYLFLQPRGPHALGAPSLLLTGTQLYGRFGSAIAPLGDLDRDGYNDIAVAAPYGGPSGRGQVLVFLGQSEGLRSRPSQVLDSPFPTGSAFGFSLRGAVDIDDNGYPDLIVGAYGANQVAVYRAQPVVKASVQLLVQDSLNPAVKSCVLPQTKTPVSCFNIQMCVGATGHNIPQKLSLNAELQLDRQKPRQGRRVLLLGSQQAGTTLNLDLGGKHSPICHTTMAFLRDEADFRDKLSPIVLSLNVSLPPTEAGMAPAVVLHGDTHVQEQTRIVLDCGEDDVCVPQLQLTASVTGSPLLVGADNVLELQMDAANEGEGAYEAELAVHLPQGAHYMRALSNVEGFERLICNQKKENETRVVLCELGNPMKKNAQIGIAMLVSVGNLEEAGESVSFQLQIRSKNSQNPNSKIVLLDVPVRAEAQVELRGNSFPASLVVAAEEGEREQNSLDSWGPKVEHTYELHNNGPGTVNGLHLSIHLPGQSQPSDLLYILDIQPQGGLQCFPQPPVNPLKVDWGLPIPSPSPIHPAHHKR
T3 sequence (P08514 891-1039 partner limits assumed): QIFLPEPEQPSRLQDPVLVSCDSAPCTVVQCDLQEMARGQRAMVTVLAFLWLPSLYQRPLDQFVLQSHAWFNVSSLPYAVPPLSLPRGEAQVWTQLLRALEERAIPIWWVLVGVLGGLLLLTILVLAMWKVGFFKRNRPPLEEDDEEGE
T3 sequence (P05106 27-788): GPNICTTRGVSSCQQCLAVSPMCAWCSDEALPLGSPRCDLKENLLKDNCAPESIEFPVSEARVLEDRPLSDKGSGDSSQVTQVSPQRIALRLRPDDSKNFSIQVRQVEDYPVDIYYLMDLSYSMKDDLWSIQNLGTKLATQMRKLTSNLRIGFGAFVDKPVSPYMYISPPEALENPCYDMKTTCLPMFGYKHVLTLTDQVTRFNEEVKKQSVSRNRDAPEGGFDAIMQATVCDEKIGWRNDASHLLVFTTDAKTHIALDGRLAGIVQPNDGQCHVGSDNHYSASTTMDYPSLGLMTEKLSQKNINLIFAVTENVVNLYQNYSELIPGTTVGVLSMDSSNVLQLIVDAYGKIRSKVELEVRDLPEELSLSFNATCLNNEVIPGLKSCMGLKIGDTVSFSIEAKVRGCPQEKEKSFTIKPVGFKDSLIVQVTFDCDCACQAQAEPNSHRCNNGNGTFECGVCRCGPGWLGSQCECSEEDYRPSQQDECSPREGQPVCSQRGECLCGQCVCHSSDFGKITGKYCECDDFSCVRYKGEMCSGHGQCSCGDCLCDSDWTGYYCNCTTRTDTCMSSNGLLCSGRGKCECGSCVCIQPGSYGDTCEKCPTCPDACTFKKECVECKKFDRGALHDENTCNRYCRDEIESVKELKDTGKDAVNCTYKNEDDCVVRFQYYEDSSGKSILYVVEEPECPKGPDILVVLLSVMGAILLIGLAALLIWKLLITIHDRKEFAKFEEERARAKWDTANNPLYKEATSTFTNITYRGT
T2 sequence (P06756 31-889 limits assumed): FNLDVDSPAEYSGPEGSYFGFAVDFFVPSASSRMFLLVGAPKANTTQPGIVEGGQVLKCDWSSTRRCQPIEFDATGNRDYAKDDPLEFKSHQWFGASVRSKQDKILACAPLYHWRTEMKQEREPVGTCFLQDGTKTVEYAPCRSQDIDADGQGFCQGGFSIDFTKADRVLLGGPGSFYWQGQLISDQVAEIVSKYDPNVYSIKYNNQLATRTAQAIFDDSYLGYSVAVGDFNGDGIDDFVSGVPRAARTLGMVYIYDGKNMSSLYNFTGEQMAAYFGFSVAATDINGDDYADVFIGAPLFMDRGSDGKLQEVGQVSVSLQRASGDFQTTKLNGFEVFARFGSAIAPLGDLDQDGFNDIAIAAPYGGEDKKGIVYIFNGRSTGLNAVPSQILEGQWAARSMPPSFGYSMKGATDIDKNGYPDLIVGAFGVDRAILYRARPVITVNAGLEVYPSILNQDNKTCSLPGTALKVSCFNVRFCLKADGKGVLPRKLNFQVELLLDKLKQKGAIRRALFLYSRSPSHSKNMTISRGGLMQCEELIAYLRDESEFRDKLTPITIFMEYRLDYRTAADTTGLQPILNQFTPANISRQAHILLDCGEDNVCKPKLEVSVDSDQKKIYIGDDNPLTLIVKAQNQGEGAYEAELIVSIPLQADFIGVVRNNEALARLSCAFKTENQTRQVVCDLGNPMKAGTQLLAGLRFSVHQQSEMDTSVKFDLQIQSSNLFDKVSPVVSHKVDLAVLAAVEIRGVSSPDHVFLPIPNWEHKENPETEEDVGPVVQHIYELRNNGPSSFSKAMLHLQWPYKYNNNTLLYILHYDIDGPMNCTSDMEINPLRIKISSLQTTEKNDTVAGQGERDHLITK
T2 sequence (P06756 891-1048 partner limits assumed): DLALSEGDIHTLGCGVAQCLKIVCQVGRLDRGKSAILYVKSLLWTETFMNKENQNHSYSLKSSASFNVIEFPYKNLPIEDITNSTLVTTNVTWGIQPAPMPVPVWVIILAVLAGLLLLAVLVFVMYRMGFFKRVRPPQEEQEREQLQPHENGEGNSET
T2 sequence (P05106 27-788): as the sequence (P05106 27-788) above
T1 sequence (P06756 31-889 limits assumed): as the sequence (P06756 31-889 limits assumed) above
T1 sequence (P06756 891-1048 partner limits assumed): as the sequence (P06756 891-1048 partner limits assumed) above
T1 sequence (P05106 27-788): as the sequence (P05106 27-788) above

“[7-(2-Guanidino-ethoxy)-2-oxo-1,2-dihydro-quinolin-3-yl]propionic Acid Methyl Ester [Example 246]”: the “(αVβ3) CELL ATTACHMENT, % @ concentration” value on αVβ3 integrin (@ 20 μM, % of maximal attachment) was 102%@ 20; on αVβ3 integrin (setting [2]), 84.2%@ 100. Moreover, the “BONE PITTING INHIBITION” value in the assay with osteoclasts (@ 26.2 μM) is 52%@ 26.2.
What is called IC50 is the midpoint of a concentration-inhibition curve. By inhibition is commonly meant the relative decrease from the control value, in per cent. On to `Cc1ccc(S(=O)(=O)NC(=O)CC2CCc3cc(OCCCNC4=NCCCN4)ccc3C2)cc1` (stereo not drawn) [Example 217, 4-Methyl-N-({6-[3-(1,4,5,6-tetrahydro-pyrimidin-2-ylamino)-propoxyl]1,2,3,4-tetrahydro-naphthalen-2-yl}-acetyl)-benzenesulfonamide, Trifluoroacetic Acid Salt], for which the IC50 in assay [1] (setting [3]) was determined as 14.7 µM. For the same molecule, the inhibition at 1 µM with osteoclasts (Rattus norvegicus, Osteoclast, @ 1 μM) worked out at 51%. In addition, the remaining activity at 200 µM at αIIbβ3 integrin (setting [4]) was found to be 98%.
On to GRGESP [reference compound], for which the “ability to inhibit αVβ3 binding” value in assay [1] (reference peptide, at 100 μm) is “inactive at 100 μm”. Besides, the “ability to inhibit ADP induced platelet aggregation” value at αIIbβ3 integrin (Table VI) is on record as “Inactive at 200”.
For the molecule GRGDTP [GRGDTP, reference compound], the IC50 was determined as 0.49 µM in assay [1] (setting [5]) and 5.2 µM on αVβ3 integrin. For the same molecule, the “ability to inhibit ADP induced platelet aggregation” value at αIIbβ3 integrin (Table VI) is “Inactive at 200”.
In the case of `N=C(N)NCCOc1ccc2cc(CC(=O)O)c(=O)[nH]c2c1` [Example 185, [7-(2-Guanidino-ethoxy)-2-oxo-1,2-dihydro-quinolin-3-yl]-acetic Acid], the remaining activity at 20 µM at αVβ3 integrin (@ 20 μM, % of maximal attachment, read-out: (αVβ3) CELL ATTACHMENT, % @ concentration) amounted to 102%. For the same molecule, the remaining activity at 100 µM at αVβ3 integrin (setting [6]) is 96.8%. The inhibition at 239 µM with osteoclasts (Rattus norvegicus, Osteoclast, @ 239 μM) is 58%. For the same molecule, the remaining activity at 200 µM on αIIbβ3 integrin (setting [4]) was 94.8%.
As to `N=C(N)NCCCCNC(=O)c1ccc2c(c1)NC(=O)C(CC(=O)O)C2` (stereo not drawn) [Example 202, [7-(4-Guanidino-butylcarbamoyl)-2-oxo-1,2,3,4-tetrahydro-quinolin-3-yl]-acetic Acid Hydrochloride], the remaining activity at 30 µM in assay [1] (setting [7]) came to 50%. The IC50 on αVβ3 integrin (setting [8]) was determined as 86 µM; at αIIbβ3 integrin (setting [9]) it was 87 µM. For the same molecule, in the assay with osteoclasts (Rattus norvegicus, Osteoclast, @ 240 μM), the inhibition at 240 µM worked out at 37%.
`COC(=O)CC1CCc2cc(OCCCNc3ncccn3)ccc2C1` (stereo not drawn) [Example 212, {6-[3-(Pyrimidin-2-ylamino)-propoxy]-1,2,3,4-tetrahydro-naphthalen-2-yl}-acetic Acid Methyl Ester]: the remaining activity at 3 µM in assay [1] (@ 3 μM, % Max = percentage of the specific binding, read-out: (αVβ3) RECEPTOR BINDING, % @ concentration) stood at 98.7%. Besides, the remaining activity at 10 µM in assay [1] (@ 10 μM, % Max = percentage of the specific binding, read-out: (αVβ3) RECEPTOR BINDING, % @ concentration) was found to be 98.3%. For the same molecule, in assay [1] (setting [7]), the remaining activity at 30 µM was 102%. Further, in assay [1] (setting [10]), the remaining activity at 100 µM stood at 99.3%.
With `N=C(N)NCCCOc1ccc2c(c1)CC(CC(=O)O)C(=O)N2` (stereo not drawn) [Example 228, [6-(3-Guanidino-propoxy)-2-oxo-1,2,3 4-tetrahydro-quinolin-3-yl]-acetic Acid], the “(αVβ3) RECEPTOR BINDING, % @ concentration” value in assay [1] (@ 30 μM, % Max = percentage of the specific binding) worked out at 57%@ 30. For the same molecule, the “(αVβ3) CELL ATTACHMENT, % @ concentration” value on αVβ3 integrin (setting [2]) amounted to 88%@ 100. Further, the “BONE PITTING INHIBITION” value with osteoclasts (@ 230 μM) stood at 7%@ 230. Moreover, on αIIbβ3 integrin (setting [4]), the “Percent of Maximal” value is given as 83.7@200%.
`CCOC(=O)CC1CCc2cc(OCCCNC3=NCCCN3)ccc2C1` (stereo not drawn) [Example 216, {6-[3-(1,4,5,6-Tetrahydro-pyrimidin-2-ylamino)-propoxy]-1,2,3,4-tetrahydro-naphthalen-2-yl}-acetic Acid Ethyl Ester, Acetic Acid Salt]: in assay [1] (setting [3]), the IC50 was found to be 60 µM. For the same molecule, the inhibition at 200 µM in the assay with osteoclasts (Rattus norvegicus, Osteoclast, @ 200 μM) came to 95%.
In the case of “Calcitonin: anti-resorptive used in the clinic; reference compound of the bone pitting test is Rat Calcitonin (CGNLSTCMLGTYTQDLNKFHTFPQTSIGVGAP; ends and bridges not checked; cysteine pairing not given here; UniProt P01257 85-116, looked up) [reference compound]”, in the assay on osteoclasts (statement in words), the “osteoclast inhibitory activity in this test procedure” value was “significant osteoclast inhibitory activity”.
For the molecule Echistatin [reference compound], the IC50 at αIIbβ3 integrin (setting [11]) came to 0.0156 µM.
For the molecule `N=C(N)NCCCCOc1ccc2c(c1)CCCC(CC(=O)O)C2` (stereo not drawn) [Example 63, [2-(4-Guanidino-butoxy)-6,7,8,9-tetrahydro-5H-benzocyclohepten-6-yl]-acetic Acid Trifluoroacetate], the IC50 in assay [1] (setting [3]) stood at 3.9 µM; on αVβ3 integrin (setting [8]), 32.8 µM. The remaining activity at 200 µM on αIIbβ3 integrin (setting [4]) was 51.5%.
Take `N=C(N)NCCOc1ccc2c(c1)CC(CCC(=O)O)C(=O)N2` (stereo not drawn) [Example 222, 3-[6-(2-Guanidino-ethoxy)-2-oxo-1,2,3,4-tetrahydro-quinolin-3-yl]-propionic Acid]: on αVβ3 integrin (setting [6]), the remaining activity at 100 µM turned out to be 100%. Moreover, in the assay on osteoclasts (Rattus norvegicus, Osteoclast, @ 22 μM), the inhibition at 22 µM was -58%. In addition, the remaining activity at 200 µM on αIIbβ3 integrin (setting [4]) was determined as 90.3%.
Consider `N=C(N)NCCC[C@H](NC(=O)CN)C(=O)NCC(=O)N[C@@H](CC(=O)O)C(=O)N[C@@H](CO)C(=O)N1CCC[C@H]1C(=O)O` [GRGDSP, reference compound], for which, at αIIbβ3 integrin (Table VI), the “ability to inhibit ADP induced platelet aggregation” value was “Inactive at 200”.
Regarding `O=C(O)CC1CCc2cc(OCCCNc3ncccn3)ccc2C1` (stereo not drawn) [Example 213, {6-[3-(Pyrimidin-2-ylamino)-propoxy]-1,2,3,4-tetrahydro-naphthalen-2-yl}-acetic Acid], the remaining activity at 100 µM in assay [1] (setting [10]) came to 54%.
For `CCOC(=O)CC1CCc2cc(OCCCNC(=N)N)ccc2C1` (stereo not drawn) [Example 31, [6-(3-Guanidinopropoxy)-1,2,3,4-tetrahydro-napthalen-2-yl]-acetic Acid Ethyl Ester], the remaining activity at 30 µM in assay [1] (setting [7]) is 88%. Moreover, the remaining activity at 100 µM on αVβ3 integrin (setting [6]) worked out at 100%. Further, the IC50 on αIIbβ3 integrin (setting [9]) came out at 160 µM.
Take GRGDNP [GRGDNP, reference compound]: in assay [1] (setting [5]), the IC50 was determined as 0.237 µM. Moreover, the “ability to inhibit ADP induced platelet aggregation” value on αIIbβ3 integrin (Table VI) is given as “Inactive at 200”.
In the case of `N=C(N)NCCC[C@H](N)C(=O)NCC(=O)N[C@@H](CC(=O)O)C(=O)N[C@@H](Cc1ccccc1)C(=O)O` [RGDF, reference compound] (H-RGDF-OH; N-terminus and C-terminus assumed), the IC50 on αIIbβ3 integrin (setting [11]) was found to be 97.6 µM.
